Experimental findings from patent US11266632B1, “Maslinic and oleanolic acids derivatives for treating SARS-CoV-2 infection” (priority 2021, dated 2022) are described below.

Read-outs that look alike come from different tables or passages of the source.

Assay [1] has as its system SARS-CoV-2 "NRC-03-nhCoV" virus. Kind of assay: Inhibitory concentration 50 (IC50) determination, virus-induced cytopathic effect in Vero-E6 cells, crystal violet. Format: cell-based. The note with it: for Selectivity Index (CC50/IC50): CC50 Vero E6 / IC50 NRC-03-nhCoV. (In general: Cytopathic effects are the visible damage that an infection or toxin causes in cultured cells.)

In assay [2] the test system is MERS-CoV virus "NRCE-HKU270". Format: cell-based. The note with it: Vero E6 cells.
The subject of a further assay is NRC-03-nhCoV. As to the kind of experiment: Mode of antiviral action, plaque infectivity reduction assay in Vero-E6 cells. The class given is cell-based, SARS-CoV-2. The procedure:
To investigate whether the tested compound with high selectivity index and antiviral activity against NRC-03-nhCoV affect (a) viral adsorption, (b) viral replication or (c) viricidal effect, a plaque infectivity reduction assay was performed according to the following protocols:
The viral adsorption mechanism was assayed according to a protocol by Zhang et al. with modifications. Vero-E6 cells were cultivated in a 6-well plate (10^5 cells/mL) for 24 h at 37° C. Each tested drug was applied in 500 μL of medium without supplements and co-incubated with the cells for 2 h at 4° C. The non-absorbed drug in the applied inocula was removed by washing cells three times with 1×PBS. The NRC-03-nhCoV was diluted to a countable range “10-4” and co-incubated with the pretreated cells. About 1 h post-incubation, the inocula were removed and 3 mL of agarose overlay (1:1 mixture of warmed 2× plaque media and a stock solution of heated 2% agarose) were added. The plates were kept at room temperature to solidify and then incubated at 37° C. to allow the formation of viral plaques. […]
The impact of the tested drug on viral replication was determined as previously described. […] The analyzed compound was then applied in varying concentrations to infected cells for another 1 h contact time at 37° C. […]
The virucidal mechanism was analyzed. […]

[3] abbreviates: Severe acute respiratory syndrome coronavirus 2, Vero C1008, 72 h.
Setting [4] is: Severe acute respiratory syndrome coronavirus 2, Vero C1008, 72 h, NRC-03-nhCoV in Vero E6, 72 h, reduction of CPE by 50%, read-out: IC50.

On to `CC1(C)CC[C@]2(C(=O)O)CC[C@]3(C)C(=CC[C@@H]4[C@@]5(C)C[C@@H](O)[C@H](O)C(C)(C)[C@@H]5CC[C@]43C)[C@@H]2C1` [Compound 2, Maslinic acid], for which the “Selectivity Index (CC50/IC50)” value in assay [1] was 0.97. In addition, the IC50 (usually the concentration that inhibits the measured activity by half) in assay [1] (setting [3]) was 99.9 µM.

On to `CC1(C)CC[C@]2(C(=O)OCc3cn(-c4ccc(Cl)cc4)nn3)CC[C@]3(C)C(=CCC4[C@@]5(C)C[C@@H](OCc6cn(-c7ccc(Cl)cc7)nn6)[C@H](O)C(C)(C)C5CC[C@]43C)C2C1` (stereo partly drawn) [Compound 12, (1-(4-Chlorophenyl)-1H-1,2,3-triazol-4-yl)methyl-(2α,3β)-2-((1-(4-chlorophenyl)-1H-1,2,3-triazol-4-yl)methoxy)-3-hydroxyolean-12-en-28-oate], for which the “Selectivity Index (CC50/IC50)” value in assay [1] stood at 4.42. In addition, the IC50 in assay [1] (setting [4]) worked out at 116 µM.

As for `CC1(C)CC[C@]2(C(=O)OCc3cn(-c4ccccc4)nn3)CC[C@]3(C)C(=CCC4[C@@]5(C)C[C@@H](O)[C@H](O)C(C)(C)C5CC[C@]43C)C2C1` (stereo partly drawn) [Compound 11, (1-Phenyl-1H-1,2,3-triazol-4-yl)methyl-(2α,3β)-2,3-dihydroxyolean-12-en-28-oate], the “Selectivity Index (CC50/IC50)” value in assay [1] is given as 1.62. The IC50 in assay [1] (setting [4]) was determined as 135 µM.

As to `C#CCOC(=O)[C@]12CCC(C)(C)CC1C1=CCC3[C@@]4(C)C[C@@H](OCC#C)[C@H](O)C(C)(C)C4CC[C@@]3(C)[C@]1(C)CC2` (stereo partly drawn) [Compound 5, Propargyl-(2α)-2-(propargyloxy)-(3β)-3-hydroxy-olean-12-en-28-oate], the “Selectivity Index (CC50/IC50)” value in assay [1] was determined as 1.06. Besides, the IC50 in assay [1] (setting [4]) worked out at 85.2 µM.

For `C#CCOC(=O)[C@]12CCC(C)(C)CC1C1=CCC3[C@@]4(C)C[C@@H](O)[C@H](OCC#C)C(C)(C)C4CC[C@@]3(C)[C@]1(C)CC2` (stereo partly drawn) [Compound 6, Propargyl-(3α)-3-(propargyloxy)-(2β)-2-hydroxy-olean-12-en-28-oate], the “Selectivity Index (CC50/IC50)” value in assay [1] is listed as 1.55. The IC50 in assay [1] (setting [4]) was 135 µM.

`CC1(C)CC[C@]2(C(=O)O)CC[C@]3(C)C(=CC[C@@H]4[C@@]5(C)CC[C@H](O)C(C)(C)[C@@H]5CC[C@]43C)[C@@H]2C1` [Compound 1, Oleanic acid]: the “Selectivity Index (CC50/IC50)” value in assay [1] is on record as 0.39. In assay [1] (setting [3]), the IC50 stood at 476 µM.

On to `Cc1cccc(-n2nncc2COC(=O)[C@]23CCC(C)(C)CC2C2=CCC4[C@@]5(C)CC[C@H](O)C(C)(C)C5CC[C@@]4(C)[C@]2(C)CC3)c1` (stereo partly drawn) [Compound 8, (1-(3-mcthylphenyl)-1H-1,2,3-triazol-5-yl)methyl-(3β)-3-hydroxyolean-12-en-28-oate], for which, in assay [1], the “Selectivity Index (CC50/IC50)” value turned out to be 0.98. In addition, the IC50 in assay [1] (setting [4]) came to 174 µM.

As for `COc1ccc(-c2cc(COC(=O)[C@]34CCC(C)(C)CC3C3=CCC5[C@@]6(C)CC[C@H](O)C(C)(C)C6CC[C@@]5(C)[C@]3(C)CC4)on2)cc1` (stereo partly drawn) [Compound 15, (3-(4-methoxyphenyl)isoxazol-5-yl) methyl-(3β)-3-hydroxyolean-12-en-28-oate], in assay [1], the “Selectivity Index (CC50/IC50)” value is recorded as 0.79.

Turning to `C#CCOC(=O)[C@]12CCC(C)(C)CC1C1=CCC3[C@@]4(C)CC[C@H](O)C(C)(C)C4CC[C@@]3(C)[C@]1(C)CC2` (stereo partly drawn) [Compound 3, Propargyl-(3β)-3-hydroxyolean-12-en-28-oate], the “Selectivity Index (CC50/IC50)” value in assay [1] came to 2.32.

As to `CC1(C)CC[C@]2(C(=O)OCc3cc(-c4ccc(Cl)cc4)no3)CC[C@]3(C)C(=CCC4[C@@]5(C)C[C@@H](O)[C@H](O)C(C)(C)C5CC[C@]43C)C2C1` (stereo partly drawn) [Compound 17, (3-(4-chlorophenyl)isoxazol-5-yl) methyl-(2α,3β)-2,3-dihydroxyolean-12-en-28-oate], the IC50 in assay [1] (NRC-03-nhCoV in Vero E6, 72 h, reduction of CPE by 50%, read-out: IC50) lay within 4.12 to 99.9 µM. The IC50 in assay [1] (setting [4]) was 4.12 µM. Further, the “antiviral activity against NRCE-HKU270” value in assay [2] is “promising antiviral activity against NRCE-HKU270 at micromolar concentrations”. In the assay with NRC-03-nhCoV, the “interference with viral adsorption and replication” value was “efficiently impair viral replication and adsorption”; the virucidal effect result is on record as “virucidal effect”.

In the case of `COc1ccc(-c2cc(COC(=O)[C@]34CCC(C)(C)CC3C3=CCC5[C@@]6(C)C[C@@H](O)[C@H](O)C(C)(C)C6CC[C@@]5(C)[C@]3(C)CC4)on2)cc1` (stereo partly drawn) [Compound 16, (3-(4-methoxyphenyl)isoxazol-5-yl) methyl-(2α,3β)-2,3-dihydroxyolean-12-en-28-oate], in assay [1], the “Selectivity Index (CC50/IC50)” value is 1.48.

Consider `C#CCOC(=O)[C@]12CCC(C)(C)CC1C1=CCC3[C@@]4(C)C[C@@H](O)[C@H](O)C(C)(C)C4CC[C@@]3(C)[C@]1(C)CC2` (stereo partly drawn) [Compound 4, Propargyl-(2α,3β)-2,3-dihydroxyolean-12-en-28-oate], for which the “Selectivity Index (CC50/IC50)” value in assay [1] amounted to 0.67. For the same compound, in assay [1] (setting [3]), the IC50 amounted to 236 µM.

Turning to `COc1ccc(-n2cc(COC(=O)[C@]34CCC(C)(C)CC3C3=CCC5[C@@]6(C)C[C@@H](O)[C@H](OCc7cn(-c8ccc(OC)cc8)nn7)C(C)(C)C6CC[C@@]5(C)[C@]3(C)CC4)nn2)cc1` (stereo partly drawn) [Compound 13, (1-(4-Methoxyphenyl)-1H-1,2,3-triazol-4-yl)methyl-(2α,3β)-2-hydroxy-3-((1-(4-methoxyphenyl)-1H-1,2,3-triazol-4-yl)methoxy)-olean-12-en-28-oate], the “Selectivity Index (CC50/IC50)” value in assay [1] is reported as 2.24. In assay [1] (setting [4]), the IC50 worked out at 159 µM.

`Cc1cccc(-n2cc(COC(=O)[C@]34CCC(C)(C)CC3C3=CCC5[C@@]6(C)CC[C@H](O)C(C)(C)C6CC[C@@]5(C)[C@]3(C)CC4)nn2)c1` (stereo partly drawn) [Compound 10, (1-(3-methylphenyl)-1H-1,2,3-triazol-4-yl)methyl-(3β)-3-hydroxyolean-12-en-28-oate]: the “Selectivity Index (CC50/IC50)” value in assay [1] came out at 3.68.

Take `COc1ccc(-n2cc(COC(=O)[C@]34CCC(C)(C)CC3C3=CCC5[C@@]6(C)C[C@@H](OCc7cn(-c8ccc(OC)cc8)nn7)[C@H](OCc7cn(-c8ccc(OC)cc8)nn7)C(C)(C)C6CC[C@@]5(C)[C@]3(C)CC4)nn2)cc1` (stereo partly drawn) [Compound 14, (1-(4-Methoxyphenyl)-1H-1,2,3-triazol-4-yl)methyl-(2α,3β)-2,3-bis((1-(4-methoxyphenyl)-1H-l,2,3-triazol-4-yl)methoxy)-olean-12-en-28-oate]: the “Selectivity Index (CC50/IC50)” value in assay [1] is given as 2.96. Also, in assay [1] (setting [4]), the IC50 was determined as 137 µM.

Turning to `C#CCOC(=O)[C@]12CCC(C)(C)CC1C1=CCC3[C@@]4(C)C[C@@H](OCC#C)[C@H](OCC#C)C(C)(C)C4CC[C@@]3(C)[C@]1(C)CC2` (stereo partly drawn) [Compound 7, Propargyl-(2α,3β)-2,3-bis(propargyloxy)-olean-12-en-28-oate], in assay [1], the “Selectivity Index (CC50/IC50)” value is recorded as 0.9. For the same compound, the IC50 in assay [1] (setting [4]) was 108 µM.
